Source: the supplement of paper PMC10307832

Columns and labels:
Test in all cases: relative viability (nuclei count vs DMSO), 5 days (fraction); higher = more cells survive
ABC-1 = test system: ABC-1
Procedure, shortened: (§1)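 The day after seeding in 1536-well plates, lung cancer cell lines were treated by pin tool with a single drug, or with a fixed anchor-drug dose together with five library-drug doses (not always all listed) in √10 steps. After 5 days, a combined fix-and-stain solution (final 0.05% Triton X-100, 1% formaldehyde, 1 ug/ml Hoechst) was added. Nuclei counted on 4× images gave relative viability as treated counts over vehicle counts, reported as the median of duplicate plates.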

COR-L23 = test system: COR-L23
Procedure, shortened: as §1

EPLC-272H = test system: EPLC-272H
Procedure, shortened: as §1

HARA = test system: HARA
Procedure, shortened: as §1

HCC-15 = test system: HCC-15
Procedure, shortened: as §1

HCC-44 = test system: HCC-44
Procedure, shortened: as §1

HOP-62 = test system: HOP-62
Procedure, shortened: as §1

LC-2-ad = test system: LC-2-ad
Procedure, shortened: as §1

LU99A = test system: LU99A
Procedure, shortened: as §1

NCI-H1355 = test system: NCI-H1355
Procedure, shortened: as §1

NCI-H1651 = test system: NCI-H1651
Procedure, shortened: as §1

NCI-H1915 = test system: NCI-H1915
Procedure, shortened: as §1

NCI-H1993 = test system: NCI-H1993
Procedure, shortened: as §1

NCI-H2023 = test system: NCI-H2023
Procedure, shortened: as §1

NCI-H2085 = test system: NCI-H2085
Procedure, shortened: as §1

NCI-H2126 = test system: NCI-H2126
Procedure, shortened: as §1

NCI-H2347 = test system: NCI-H2347
Procedure, shortened: as §1

NCI-H650 = test system: NCI-H650
Procedure, shortened: as §1

NCI-H838 = test system: NCI-H838
Procedure, shortened: as §1

PC-14 = test system: PC-14
Procedure, shortened: as §1

SW 1573 = test system: SW 1573
Procedure, shortened: as §1

UMC-11 = test system: UMC-11
Procedure, shortened: as §1

CC(=O)O[C@@]12CO[C@@H]1C[C@H](O)[C@@]1(C)C(=O)[C@H](O)C3=C(C)[C@@H](OC(=O)[C@H](O)[C@@H](NC(=O)OC(C)(C)C)c4ccccc4)C[C@@](O)([C@@H](OC(=O)c4ccccc4)[C@H]21)C3(C)C [Docetaxel] + C[C@]1(O)C[C@@H](c2nc(-c3ccc4ccc(-c5ccccc5)nc4c3)c3c(N)nccn32)C1 [Linsitinib] (partner 1 µM)
relative viability (ABC-1; first compound 0.0002 µM): 0.834
relative viability (ABC-1; first compound 0.000632 µM): 1
relative viability (ABC-1; first compound 0.002 µM): 0.424
relative viability (ABC-1; first compound 0.006325 µM): 0.286
relative viability (ABC-1; first compound 0.02 µM): 0.218
relative viability (COR-L23; first compound 0.0002 µM): 0.813
relative viability (COR-L23; first compound 0.000632 µM): 0.722
relative viability (COR-L23; first compound 0.002 µM): 0.259
relative viability (COR-L23; first compound 0.006325 µM): 0.101
relative viability (COR-L23; first compound 0.02 µM): 0.0798
relative viability (EPLC-272H; first compound 0.0002 µM): 1.08
relative viability (EPLC-272H; first compound 0.000632 µM): 0.954
relative viability (EPLC-272H; first compound 0.002 µM): 0.54
relative viability (EPLC-272H; first compound 0.006325 µM): 0.126
relative viability (EPLC-272H; first compound 0.02 µM): 0.0815
relative viability (HARA; first compound 0.0002 µM): 0.739
relative viability (HARA; first compound 0.000632 µM): 0.482
relative viability (HARA; first compound 0.002 µM): 0.235
relative viability (HARA; first compound 0.006325 µM): 0.0978
relative viability (HARA; first compound 0.02 µM): 0.0632
relative viability (HCC-15; first compound 0.0002 µM): 0.765
relative viability (HCC-15; first compound 0.000632 µM): 0.479
relative viability (HCC-15; first compound 0.002 µM): 0.227
relative viability (HCC-15; first compound 0.006325 µM): 0.244
relative viability (HCC-15; first compound 0.02 µM): 0.162
relative viability (HCC-44; first compound 0.0002 µM): 0.608
relative viability (HCC-44; first compound 0.000632 µM): 0.747
relative viability (HCC-44; first compound 0.002 µM): 0.589
relative viability (HCC-44; first compound 0.006325 µM): 0.201
relative viability (HCC-44; first compound 0.02 µM): 0.106
relative viability (HOP-62; first compound 0.0002 µM): 1.18
relative viability (HOP-62; first compound 0.000632 µM): 0.672
relative viability (HOP-62; first compound 0.02 µM): 0.128
relative viability (LC-2-ad; first compound 0.0002 µM): 0.714
relative viability (LC-2-ad; first compound 0.000632 µM): 0.223
relative viability (LC-2-ad; first compound 0.002 µM): 0.185
relative viability (LC-2-ad; first compound 0.006325 µM): 0.159
relative viability (LC-2-ad; first compound 0.02 µM): 0.112
relative viability (LU99A; first compound 0.0002 µM): 0.52
relative viability (LU99A; first compound 0.000632 µM): 0.458
relative viability (LU99A; first compound 0.002 µM): 0.356
relative viability (LU99A; first compound 0.006325 µM): 0.262
relative viability (LU99A; first compound 0.02 µM): 0.169
relative viability (NCI-H1355; first compound 0.0002 µM): 0.75
relative viability (NCI-H1355; first compound 0.000632 µM): 0.771
relative viability (NCI-H1355; first compound 0.002 µM): 0.467
relative viability (NCI-H1355; first compound 0.006325 µM): 0.297
relative viability (NCI-H1355; first compound 0.02 µM): 0.188
relative viability (NCI-H1651; first compound 0.0002 µM): 0.876
relative viability (NCI-H1651; first compound 0.000632 µM): 0.746
relative viability (NCI-H1651; first compound 0.002 µM): 0.229
relative viability (NCI-H1651; first compound 0.006325 µM): 0.112
relative viability (NCI-H1651; first compound 0.02 µM): 0.117
relative viability (NCI-H1915; first compound 0.0002 µM): 1.07
relative viability (NCI-H1915; first compound 0.000632 µM): 1.06
relative viability (NCI-H1915; first compound 0.002 µM): 0.724
relative viability (NCI-H1915; first compound 0.006325 µM): 0.239
relative viability (NCI-H1915; first compound 0.02 µM): 0.156
relative viability (NCI-H1993; first compound 0.0002 µM): 0.796
relative viability (NCI-H1993; first compound 0.000632 µM): 0.739
relative viability (NCI-H1993; first compound 0.002 µM): 0.807
relative viability (NCI-H1993; first compound 0.006325 µM): 0.605
relative viability (NCI-H1993; first compound 0.02 µM): 0.488
relative viability (NCI-H2023; first compound 0.0002 µM): 0.703
relative viability (NCI-H2023; first compound 0.000632 µM): 0.72
relative viability (NCI-H2023; first compound 0.002 µM): 0.144
relative viability (NCI-H2023; first compound 0.006325 µM): 0.159
relative viability (NCI-H2023; first compound 0.02 µM): 0.0739
relative viability (NCI-H2085; first compound 0.0002 µM): 0.868
relative viability (NCI-H2085; first compound 0.000632 µM): 0.888
relative viability (NCI-H2085; first compound 0.002 µM): 0.652
relative viability (NCI-H2085; first compound 0.006325 µM): 0.576
relative viability (NCI-H2085; first compound 0.02 µM): 0.276
relative viability (NCI-H2126; first compound 0.0002 µM): 0.747
relative viability (NCI-H2126; first compound 0.000632 µM): 0.683
relative viability (NCI-H2126; first compound 0.002 µM): 0.631
relative viability (NCI-H2126; first compound 0.006325 µM): 0.402
relative viability (NCI-H2126; first compound 0.02 µM): 0.291
relative viability (NCI-H2347; first compound 0.0002 µM): 0.946
relative viability (NCI-H2347; first compound 0.000632 µM): 0.926
relative viability (NCI-H2347; first compound 0.002 µM): 0.839
relative viability (NCI-H2347; first compound 0.006325 µM): 0.622
relative viability (NCI-H2347; first compound 0.02 µM): 0.517
relative viability (NCI-H650; first compound 0.0002 µM): 0.657
relative viability (NCI-H650; first compound 0.000632 µM): 0.341
relative viability (NCI-H650; first compound 0.002 µM): 0.312
relative viability (NCI-H650; first compound 0.006325 µM): 0.255
relative viability (NCI-H650; first compound 0.02 µM): 0.152
relative viability (NCI-H838; first compound 0.0002 µM): 0.98
relative viability (NCI-H838; first compound 0.000632 µM): 1.1
relative viability (NCI-H838; first compound 0.002 µM): 0.247
relative viability (NCI-H838; first compound 0.006325 µM): 0.166
relative viability (NCI-H838; first compound 0.02 µM): 0.145
relative viability (PC-14; first compound 0.0002 µM): 0.992
relative viability (PC-14; first compound 0.000632 µM): 0.957
relative viability (PC-14; first compound 0.002 µM): 0.606
relative viability (PC-14; first compound 0.006325 µM): 0.152
relative viability (PC-14; first compound 0.02 µM): 0.064
relative viability (SW 1573; first compound 0.0002 µM): 0.804
relative viability (SW 1573; first compound 0.000632 µM): 0.594
relative viability (SW 1573; first compound 0.002 µM): 0.279
relative viability (SW 1573; first compound 0.006325 µM): 0.276
relative viability (SW 1573; first compound 0.02 µM): 0.178
relative viability (UMC-11; first compound 0.0002 µM): 0.982
relative viability (UMC-11; first compound 0.000632 µM): 0.905
relative viability (UMC-11; first compound 0.002 µM): 0.278
relative viability (UMC-11; first compound 0.006325 µM): 0.237
relative viability (UMC-11; first compound 0.02 µM): 0.183
